Results as given in patent US20050214285A1, “Epitopes or mimotopes derived from the C-epsilon-3 or C-epsilon-4 domains of IgE, antagonists thereof, and their therapeutic uses” (SmithKline Beecham Biologicals, s.a. and Peptide …, priority 1999, published 2005).
Where “and” joins values, the source holds several entries; their conditions need not be identical. Identical values can stand only once. Positions of bridges follow the written chain, without caps; N, C: chain ends. Residues, ends and D or L forms follow the SMILES beside them. No end group written: not given here.

B1: recombinant FcεRIα ectodomain (receptor, UniProt P12319 26-205, looked up)
chain: VPQKPKVSLNPPWNRIFKGENVTLTCNGNNFFEVSSTKWFHNGSLSEETNSSLNIVNAKFEDSGEYKCQHQQVNESEPVYLEVFSDWLLLQASAEVVMEGQPLFLRCHGWRNWDVYKVIYYKDGEALKYWYENHNISITNATVEDSGTYYCTGKVWQLDYESEPLNITVIKAPREKYWLQ
notes: extracellular domain; also called FcεR1α ectodomain; FcεR1α

How the values were obtained:
[1] = system: human IgE; assay: Immunisation of mice with peptide expressing phage; format: in vivo, mouse; conditions: peptide expressing phage used as immunogen
[2] = system: PTmAb0005; assay: Phage display ranking of peptide ligands for PTmAb0005; format: binding
[3] = molecular target: PTmAb0005; assay: BIAcore affinity to PTmAb0005; format: binding; conditions: read-out: PTmAb BIAcore KD^Rel (μM) PTmAb0005
Excerpt: (§1) This involved a DNA sub-cloning transfer from the major coat protein (gVIIIp) filamentous phage display vector to a lower copy number minor phage coat protein (gIIIp) display vector with a random PCR step. […] Included in the tables are ranking orders and also BIAcore affinities where available.
(§2) Thus indicating the importance of correct presentation of the peptides of the present invention to adopt a shape which closely resembles the native target in the context of the whole IgE molecule. [drawing]

[4] = system: PTmAb0011; assay: Phage display ranking of peptide ligands for PTmAb0011; format: binding, mouse; conditions: IgEC67 mutants (Table 8)
Outline: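 Ligands selected from phage libraries displaying XCX15, XCX10 or XAX10 peptides on gVIIIp, then transferred by sub-cloning with a random PCR step to a lower-copy gIIIp display vector. Peptides ranked by order of phage returns, with BIAcore affinities where available.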

[5] = molecular target: PTmAb0011; assay: BIAcore affinity to PTmAb0011; format: binding, mouse; conditions: read-out: PTmAb BIAcore KD^Rel (μM) PTmAb0011
Excerpt: as §1, §2

[6] = system: biotinylated peptide; assay: Anti-peptide ELISA of sera from immunised mice; format: in vivo, BalbC mice; conditions: for Anti peptide immune responses, Mid point titres, Av / Anti peptide immune responses, Mid point titres, GM / Anti peptide immune responses/mouse, Mid point titres, mouse 1 / Anti peptide immune responses/mouse, Mid point titres, mouse 2 / Anti peptide immune responses/mouse, Mid point titres, mouse 3 / Anti peptide immune responses/mouse, Mid point titres, mouse 4 / Anti peptide immune responses/mouse, Mid point titres, mouse 5 / Anti peptide immune responses/mouse, Mid point titres, mouse 6 / Anti peptide immune responses/mouse, Mid point titres, mouse 7 / Anti peptide immune responses/mouse, Mid point titres, mouse 8 / Anti peptide immune responses/mouse, Mid point titres, mouse 9 / Anti peptide immune responses/mouse, Mid point titres, mouse 10: conjugated to BSA, 14 days after third vaccination; for Anti peptide immune responses, Mid point titres, Av: average; for Anti peptide immune responses, Mid point titres, GM: geomean
Protocol: The anti-peptide and anti-carrier immune responses were investigated using an ELISA technique outlined below. Microtiterplates (Nunc) are coated with the specific antigen in PBS (4° overnight) with either: Streptavidin at 2 μg/ml (followed by incubation with biotinylated peptide (1 μM) for 1 hour at 37° C.), Wash 3×PBS-Tween 20 0.1%. Saturate plates with PBS-BSA 1%-Tween 20 0.1% (Sat buffer) for 1 hr at 37°. Add 1° antibody=sera in two-step dilution (in Sat buffer), incubate 1 hr 30 minutes at 37°. Wash 3×. Add 2° anti-mouse Ig (or anti-mouse isotype specific monoclonal antibody) coupled to HRP. Incubate 1 hr at 370. Wash 5×. Reveal with TMB (BioRad) for 10 minutes at room temperature in the dark. Block reaction with 0.4N H2SO4.
(§3) The conjugates comprising the mimotope P15 (25 μg protein/dose), described in 1.4, were administered into groups of 10 BalbC mice, adjuvanted with and oil in water emulsion containing QS21 and 3D-MPL described in WO 95/17210 . Boosting was be performed on day 21 and on day 42 and sera can be harvested on day 42 and 56. The immune response anti-peptide and anti-plate bound IgE was followed using methods described in Example 1.

[7] = system: human chimaeric IgE; assay: IgE plate bound ELISA: anti-human IgE reactivity in mouse serum; format: in vivo; conditions: for anti-IgE antibody response when presented on carriers: in vivo
Protocol: ELISA plates are coated with human chimaeric IgE at 1 μg/ml in pH 9.6 carbonate/bicarbonate coating buffer for 1 hour at 37° C. or overnight at 4° C. Non-specific binding sites are blocked with PBS/0.05% Tween-20 containing 5% w/v Marvel milk powder for 1 hour at 37° C. […] Polyclonal serum binding is detected with goat anti-mouse IgG-Biotin (1/2000) followed by Streptavidin-HRP (1/1000). Conjugated antibody is detected with TMB substrate at 450nm. A standard curve of PTmAb0011 is included on each plate so that the anti-IgE reactivity in serum samples can be calculated in μg/ml.
as §3
The mice were bled after the last immunisation and tested for anti-IgE reactivity in the IgE plate bound ELISA. The individual, average (Av), geomean (GM), results are summarised below (SD=standard deviation).
These vaccines were administered into groups of 10 BalbC mice, and boosting was be performed on day 14 and on day 28 and sera was harvested on day 42. The immune response to anti-plate bound IgE and receptor orientated IgE, was then followed using the techniques described in example 1.4. Also, the activity of the antiserum in the inhibition of histamine release from allergic basophils was measured in the techniques described in 1.5.

[8] = system: basophils from freshly harvested peripheral blood from allergic patients
Excerpt: Several dilutions of complete sera or IgG purified from conjugate immunised mice can be tested in presence of basophils from freshly harvested peripheral blood from allergic patients.

[9] = system: allergic human basophils; assay: Histamine release inhibition from allergic human basophils; format: cell-based; conditions: antiserum of an individual immunised mouse, dilution 1/30
Protocol: Blocking activity of anti-P15 antibodies in the antiserum was evaluated by the measuring of the inhibition of the histamine release induced by the allergen. Histamine release and inhibition was measured as described in example 3. As P15 is a mimotope of P1, PTmAb0011 was used as a control as it is known to bind to the same epitope (P1).

[10] = molecular target: T1, Cε2-4 (human, UniProt P01854-1 106-428); assay: ELISA, graded
T1 construct: also called WT cε2-4; cε2-4 fragment
T1 sequence (P01854 other isoform, or with tags, fused parts or gaps limits assumed): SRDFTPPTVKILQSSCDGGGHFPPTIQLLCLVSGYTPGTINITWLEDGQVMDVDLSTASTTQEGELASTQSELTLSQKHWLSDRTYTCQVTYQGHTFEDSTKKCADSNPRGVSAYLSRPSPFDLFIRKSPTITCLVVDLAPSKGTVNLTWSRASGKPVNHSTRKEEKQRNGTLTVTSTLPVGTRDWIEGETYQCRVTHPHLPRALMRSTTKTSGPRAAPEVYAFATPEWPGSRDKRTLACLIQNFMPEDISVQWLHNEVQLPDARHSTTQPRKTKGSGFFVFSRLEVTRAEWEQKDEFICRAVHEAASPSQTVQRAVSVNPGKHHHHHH

[11] = BalbC mice, 25 μg protein/dose, day 14 post third vaccination

Molecule | Anti peptide immune responses, Mid point titres, Av [6] | Anti peptide immune responses, Mid point titres, GM [6] | Anti peptide immune responses/mouse, Mid point titres, mouse 1 [6] | Anti peptide immune responses/mouse, Mid point titres, mouse 2 [6] | Anti peptide immune responses/mouse, Mid point titres, mouse 3 [6] | Anti peptide immune responses/mouse, Mid point titres, mouse 4 [6] | Anti peptide immune responses/mouse, Mid point titres, mouse 5 [6] | Anti peptide immune responses/mouse, Mid point titres, mouse 6 [6] | Anti peptide immune responses/mouse, Mid point titres, mouse 7 [6] | Anti peptide immune responses/mouse, Mid point titres, mouse 8 [6] | Anti peptide immune responses/mouse, Mid point titres, mouse 9 [6] | Anti peptide immune responses/mouse, Mid point titres, mouse 10 [6] | anti-IgE antibody response when presented on carriers [7] | anaphylactogenicity of the induced antiserum [8] | other results
CC[C@H](C)[C@@H]1NC(=O)[C@H](Cc2ccccc2)NC(=O)[C@@H](N)CSSC[C@@H](C(=O)N2CCC[C@H]2C(=O)N[C@@H](CCCNC(=N)N)C(=O)N[C@@H](CCC(=O)O)C(=O)O)NC(=O)[C@H](CC(C)C)NC(=O)[C@H](CCC(=O)O)NC(=O)[C@H](CC(C)C)NC(=O)[C@H](CC(=O)O)NC(=O)[C@H](C)NC(=O)[C@H](CCSC)NC(=O)[C@H](CCC(N)=O)NC(=O)[C@H](CCCCN)NC(=O)[C@H](CC(N)=O)NC1=O [IgEC67-8] (H-CFINKQMADLELCPRE-OH; disulfide 1-13) |  |  |  |  |  |  |  |  |  |  |  |  |  |  | anti-human IgE response in mice [1]: capable of inducing an anti-human IgE response in mice; Rel. Rank A ([2]; IgEC67-8 mutants (Table 9)): 1.00; Rel. Rank B ([2]; IgEC67-8 mutants (Table 9)): 1.00; PTmAb Rank 0005 ([2]; IgEC67 mutants (Table 8)): 4.36; Kd [3]: 0.0094 µM; PTmAb Rank 0011 [4]: 2.4; Kd [5]: 0.066 µM
CSQKHWLSDRT-NH2 [Peptide P17] | 5446 | 4656 | 100 | 4349 | 2850 | 3434 | 6133 | 2231 | 5085 | 2991 | 13070 | 8874 | strong anti-IgE antibody responses | non anaphylactogenic | 
P15-BSA: P15 (CLEDGQVMDVDLL) conjugated to BSA (CLEDGQVMDVDLL-NH2; also: conjugated to BSA) [Peptide P15-BSA] |  |  |  |  |  |  |  |  |  |  |  |  |  | Neither antiserum generated with P15-BSA or P15-PD was shown to be anaphylactogenic | Anti-peptide responses (Mid point titre) Average [6, 11]: 49591; Anti-peptide responses (Mid point titre) Geomean [6, 11]: 48719; Anti-IgE responses (μg/ml (PTmAb0011)) Average [7, 11]: 2.2 µg/mL; Anti-IgE responses (μg/ml (PTmAb0011)) Geomean [7, 11]: 1.0 µg/mL; % inhibition of histamine release [9]: 67% and 57%
CSTTQEGELA-NH2 [Peptide P16] | 1882 | 1478 | 1891 | 649 | 1299 | 2349 | 591 | 1474 | 4605 | 918 | 4177 | 865 | strong anti-IgE antibody responses | non anaphylactogenic | 
B1 |  |  |  |  |  |  |  |  |  |  |  |  |  |  | binding result [10]: binds
